According to the NIST ThermoML archive (doi:10.1021/je049671t):

Assay: xn = mol fraction of the nth substance listed
Details: Liquid, Vibrating tube method

CCCC [butane] + CCC
Details | mass density [kg/m3]
300 K, 4513.8 kPa, x2 = 0.75 | 523.55
300 K, 4514.7 kPa, x2 = 0.5 | 543.88
300 K, 4953.2 kPa, x2 = 0.5 | 544.76
300 K, 5016.7 kPa, x2 = 0.75 | 524.69
300 K, 5031 kPa, x2 = 0.25 | 562.9
300 K, 5451.1 kPa, x2 = 0.25 | 563.65
300 K, 5474.7 kPa, x2 = 0.75 | 525.74
300 K, 5508.8 kPa, x2 = 0.5 | 545.86
300 K, 5929.8 kPa, x2 = 0.25 | 564.5
300 K, 5950 kPa, x2 = 0.75 | 526.78
300 K, 5953 kPa, x2 = 0.5 | 546.73
300 K, 6466.1 kPa, x2 = 0.5 | 547.72
300 K, 6473.6 kPa, x2 = 0.75 | 527.92
300 K, 6488.8 kPa, x2 = 0.25 | 565.48
300 K, 6959.9 kPa, x2 = 0.5 | 548.68
300 K, 7015.2 kPa, x2 = 0.75 | 529.08
300 K, 7074.7 kPa, x2 = 0.25 | 566.49
320 K, 997.4 kPa, x2 = 0.25 | 529.12
320 K, 1482.2 kPa, x2 = 0.25 | 530.41
320 K, 1496.3 kPa, x2 = 0.5 | 509.2
320 K, 1509.8 kPa, x2 = 0.75 | 484.66
320 K, 1996.7 kPa, x2 = 0.25 | 531.76
320 K, 2010.3 kPa, x2 = 0.5 | 510.79
320 K, 2020.7 kPa, x2 = 0.75 | 486.64
320 K, 2497.1 kPa, x2 = 0.75 | 488.41
320 K, 2502.8 kPa, x2 = 0.25 | 533.06
320 K, 2516.5 kPa, x2 = 0.5 | 512.32
320 K, 2999.8 kPa, x2 = 0.5 | 513.74
320 K, 3011.6 kPa, x2 = 0.75 | 490.26
320 K, 3012.6 kPa, x2 = 0.25 | 534.34
320 K, 3459.5 kPa, x2 = 0.75 | 491.82
320 K, 3509.2 kPa, x2 = 0.5 | 515.19
320 K, 3516.7 kPa, x2 = 0.25 | 535.58
320 K, 4012.1 kPa, x2 = 0.25 | 536.73
320 K, 4013.7 kPa, x2 = 0.75 | 493.68
320 K, 4017.1 kPa, x2 = 0.5 | 516.6
320 K, 4472 kPa, x2 = 0.25 | 537.8
320 K, 4497.4 kPa, x2 = 0.5 | 517.9
320 K, 4512.7 kPa, x2 = 0.75 | 495.29
320 K, 4988.6 kPa, x2 = 0.5 | 519.21
320 K, 4989.7 kPa, x2 = 0.25 | 539
320 K, 5019.1 kPa, x2 = 0.75 | 496.89
320 K, 5490.6 kPa, x2 = 0.5 | 520.51
320 K, 5501 kPa, x2 = 0.25 | 540.19
320 K, 5520.4 kPa, x2 = 0.75 | 498.43
320 K, 5989.8 kPa, x2 = 0.5 | 521.77
320 K, 6001.7 kPa, x2 = 0.75 | 499.85
320 K, 6013.9 kPa, x2 = 0.25 | 541.36
320 K, 6479.5 kPa, x2 = 0.5 | 522.98
320 K, 6522.9 kPa, x2 = 0.75 | 501.37
320 K, 6524.6 kPa, x2 = 0.25 | 542.42
320 K, 7003.8 kPa, x2 = 0.25 | 543.49
320 K, 7020.7 kPa, x2 = 0.75 | 502.78
320 K, 7116.4 kPa, x2 = 0.5 | 524.52
340 K, 1485.3 kPa, x2 = 0.25 | 500.98
340 K, 1990.9 kPa, x2 = 0.25 | 502.87
340 K, 1994.9 kPa, x2 = 0.75 | 448.06
340 K, 2013.6 kPa, x2 = 0.5 | 478.5
340 K, 2454.3 kPa, x2 = 0.25 | 504.54
340 K, 2508.8 kPa, x2 = 0.5 | 480.75
340 K, 2527.2 kPa, x2 = 0.75 | 451.44
340 K, 2997.6 kPa, x2 = 0.25 | 506.44
340 K, 3013.6 kPa, x2 = 0.5 | 482.96
340 K, 3018 kPa, x2 = 0.75 | 454.37
340 K, 3488 kPa, x2 = 0.25 | 508.09
340 K, 3515.5 kPa, x2 = 0.5 | 485.04
340 K, 3542.6 kPa, x2 = 0.75 | 457.27
340 K, 3984.5 kPa, x2 = 0.25 | 509.71
340 K, 4016.2 kPa, x2 = 0.5 | 487.04
340 K, 4021.6 kPa, x2 = 0.75 | 459.81
340 K, 4469.1 kPa, x2 = 0.75 | 462.01

mass density [kg/m3]
Details | x2 = 0.25 | x2 = 0.5 | x2 = 0.75
300 K | 554.07 | 535.4 | 514.2
320 K | 528.42 | 507.52 | 483.71
